The term IC50 denotes the midpoint of a concentration-inhibition curve.

Molecules are shown by their SMILES. Like-named read-outs stand apart in the source and are kept apart here. Some results are limits rather than exact numbers.

Results on three compounds are retold here after paper PMC11413853, “Discovery of VU6007496: Challenges in the Development of an M1 Positive Allosteric Modulator Backup Candidate” (ACS Chemical Neuroscience, 2024).

For one data set, the target named is CYP2C9 (Homo sapiens, UniProt P11712). Kind of data set: CYP inhibition, 2C9. In kind it is in vitro ADME.
Chain of CYP2C9 (P11712 whole entry): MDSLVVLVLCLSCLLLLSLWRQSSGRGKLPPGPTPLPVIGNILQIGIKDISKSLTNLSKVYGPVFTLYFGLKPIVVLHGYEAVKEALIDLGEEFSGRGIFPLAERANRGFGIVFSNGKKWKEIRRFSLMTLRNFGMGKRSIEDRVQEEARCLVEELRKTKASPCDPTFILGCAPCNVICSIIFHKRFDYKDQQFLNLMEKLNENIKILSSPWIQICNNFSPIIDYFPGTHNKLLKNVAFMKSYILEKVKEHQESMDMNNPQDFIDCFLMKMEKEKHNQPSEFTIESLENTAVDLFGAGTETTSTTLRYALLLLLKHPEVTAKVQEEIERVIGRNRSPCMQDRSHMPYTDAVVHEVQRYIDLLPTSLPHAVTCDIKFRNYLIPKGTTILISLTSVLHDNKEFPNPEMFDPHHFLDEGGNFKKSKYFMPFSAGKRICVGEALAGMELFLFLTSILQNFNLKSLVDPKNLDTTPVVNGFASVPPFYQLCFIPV
For a further data set, the target named is T1, human M1 (Homo sapiens, UniProt P11229).
T1 sequence (P11229 1-460): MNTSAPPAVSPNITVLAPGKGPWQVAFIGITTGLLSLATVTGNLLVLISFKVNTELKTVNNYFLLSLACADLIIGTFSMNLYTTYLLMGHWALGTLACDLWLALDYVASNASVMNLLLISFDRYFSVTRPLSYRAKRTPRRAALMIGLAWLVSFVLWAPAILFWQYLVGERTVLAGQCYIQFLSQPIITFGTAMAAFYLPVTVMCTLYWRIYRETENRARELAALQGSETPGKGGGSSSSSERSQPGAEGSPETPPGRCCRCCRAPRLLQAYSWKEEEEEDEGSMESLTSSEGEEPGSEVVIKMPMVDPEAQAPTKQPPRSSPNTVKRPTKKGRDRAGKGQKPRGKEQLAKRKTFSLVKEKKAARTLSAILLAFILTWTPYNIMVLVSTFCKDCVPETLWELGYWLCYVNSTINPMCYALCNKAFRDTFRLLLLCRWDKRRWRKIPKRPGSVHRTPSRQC
As to the kind of experiment: Calcium mobilization assay, human M1 (agonist and PAM modes). In kind it is cell-based. As to conditions: for hM1 PAM AChmax (%) / hM1 Agonist AChmax (%): % ACh max. For orientation: Calcium flux is commonly read through the fluorescence of an indicator in the cells.

In a further data set the target is CYP2D6 (Homo sapiens, UniProt P10635). Kind of data set: CYP inhibition, 2D6. In kind it is in vitro ADME.
Chain of CYP2D6 (P10635 whole entry): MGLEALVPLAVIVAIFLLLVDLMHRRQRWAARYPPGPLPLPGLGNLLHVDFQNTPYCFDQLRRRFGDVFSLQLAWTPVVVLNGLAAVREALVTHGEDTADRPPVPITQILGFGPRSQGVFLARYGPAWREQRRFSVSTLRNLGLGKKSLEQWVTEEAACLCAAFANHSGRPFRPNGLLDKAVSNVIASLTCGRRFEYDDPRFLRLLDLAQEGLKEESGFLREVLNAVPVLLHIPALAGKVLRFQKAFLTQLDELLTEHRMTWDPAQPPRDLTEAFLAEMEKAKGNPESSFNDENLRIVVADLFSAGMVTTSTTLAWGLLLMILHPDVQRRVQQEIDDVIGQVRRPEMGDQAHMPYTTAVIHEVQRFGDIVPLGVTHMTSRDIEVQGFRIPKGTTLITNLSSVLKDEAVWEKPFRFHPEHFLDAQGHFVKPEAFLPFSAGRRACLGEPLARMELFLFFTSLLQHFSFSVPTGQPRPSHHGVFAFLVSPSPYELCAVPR
Data set [1] in a line: Rat brain homogenate binding. Particulars: brain homogenate (1:3 brain:DPBS, w/w), pH 7.4, read-out: fu,brain (r). In kind it is in vitro ADME. On the procedure: Plasma protein binding and Brain homogenate binding: Determination of fraction unbound (f u) in plasma was conducted in vitro via equilibrium dialysis using HTDialysis (HTD) membrane plates. The top half of the plate was filled with 100 uL of Dubelco’s Phosphate Buffered Saline, pH 7.4 (DPBS). Compounds were diluted into plasma from each species (5 µM final concentration), which was aliquoted in triplicate to the ‘bottom half’ of the prepared HTD plate wells. The HTD plate was sealed and incubated for 6 hours at 37 °C. Following incubation, each well (both top and bottom halves) were transferred (20 µL) to the corresponding wells of a 96-shallow-well (V-bottom) plate. The daughter plates were then matrix-matched (DPBS side wells received equal volume of plasma, and plasma side wells received equal volume of DPBS), and extraction solution (120 µL; acetonitrile containing 50 nM carbamazepine as IS) was added to all wells of both daughter plates to precipitate protein and extract test article. The plates were then sealed and centrifuged (3500 rcf) for 10 minutes at ambient temperature. […]
The unbound fraction (f u) was calculated following the equation below, and mean values for each species were calculated from 3 replicates.
A similar approach was used to determine the degree of brain homogenate binding, which employed the same methodology and procedure with the following modifications: 1) a final compound concentration of 1 μM was used, 2) naïve rat brains were homogenized in DPBS (1:3 composition of brain: DPBS, w/w) using a Mini-Bead Beater™ machine in order to obtain brain homogenate, which was then treated in the same manner as the plasma samples in the previously described plasma protein binding assay. Fraction unbound for both plasma and brain samples was determined using Equation 4. […]
The diluted fraction unbound (fu2) in brain was calculated in the same manner by using brain homogenate rather than plasma. Undiluted fraction unbound for the brain was calculated using […]

Where [2] appears, read: PAM mode, read-out: hM1 PAM EC50.
[3] abbreviates: agonist mode, read-out: hM1 Agonist EC50.
The mark [4] stands for this setting: hM1 PAM EC50, PAM mode, read-out: hM1 PAM pEC50 (converted).
The mark [5] stands for this setting: agonist mode, read-out: human M1 agonism EC50.

Consider `Cn1ccc(-c2ccc(Cc3cc(C(=O)NC4CCOCC4)nc4ccn(C)c34)cc2)n1` [compound 11], for which the results for the IC50 against CYP2C9 and against CYP2D6 were 28.5 µM and greater than 30 µM, respectively. At human M1 (PAM mode), the “hM1 PAM AChmax (%)” value was 80%. Moreover, the figures for the EC50 on human M1 (setting [2]), on human M1 (setting [3]) and at human M1 (setting [4]) were 0.228 µM, greater than 10 µM and 0.166 µM, respectively. Besides, the “hM1 Agonist AChmax (%)” value at human M1 (agonist mode) was found to be 24%. Moreover, the fraction unbound at 6 h, 1 µM in data set [1] stood at 0.038.
As for `Cn1ccc(-c2ccc(Cc3cc(C(=O)NC4CCOCC4)nc4ccsc34)cc2)n1` [compound 12], the IC50 was 16.6 µM against CYP2C9 and greater than 30 µM on CYP2D6. Further, on human M1 (PAM mode), the “hM1 PAM AChmax (%)” value turned out to be 73%. Besides, the EC50 is 0.149 µM on human M1 (setting [2]), 3.06 µM on human M1 (setting [3]), 3.1 µM on human M1 (setting [5]) and 0.132 µM on human M1 (setting [4]). Moreover, the “hM1 Agonist AChmax (%)” value on human M1 (agonist mode) was found to be 38%. In addition, the fraction unbound at 6 h, 1 µM in data set [1] is 0.011.
On to `Cn1ccc2nc(C(=O)NC3CCOCC3)cc(Cc3ccc(-c4cc[nH]n4)cc3)c21` [compound 24], for which the IC50 against CYP2C9 and against CYP2D6 was greater than 30 µM each time. Also, the “hM1 PAM AChmax (%)” value on human M1 (PAM mode) worked out at 73%. Further, the EC50 at human M1 (setting [2]) amounted to 0.144 µM; on human M1 (setting [5]), 2.1 µM. For the same compound, at human M1 (agonist mode), the “hM1 Agonist AChmax (%)” value turned out to be 36%. Further, the fraction unbound at 6 h, 1 µM in data set [1] worked out at 0.025.
